Earlier results, collected in patent US4571403A, “Antianginal medicated compound” (Institut Organicheskoi Khimii Imeni N.D. Zelinskogo …, priority 1984, dated 1986).
Where a name gives a salt, the structure may show the parent alone.

Test system: myocardium / blood circulation
Settings: prior art; cited from earlier work

Row | Compound | adrenergic effect | blood flow / blood supply of ischemized zones of myocardium | contractability of the heart (inotropic effect) | duration of action | side effects | therapeutic range | incompatibility with other pharmaceutical preparations | contraindications | systemic arterial pressure
1 | CCCCc1oc2ccccc2c1C(=O)c1cc(I)c(OCCN(CC)CC)c(I)c1 [Cardaron, [2-butyl-3-benzofuranyl]-[4-(2-diethylaminoethoxy)-3,5-diodophenyl]ketone hydrochloride] | antiadrenergic preparations with a mixed effect | no selective effect on blood supply of the ischemized zone of myocardium | negative inotropic effect on myocardium | short duration of its action | affection of eye cornea | narrow therapeutic range |  |  | 
2 | O=[N+]([O-])OCC(CO[N+](=O)[O-])O[N+](=O)[O-] [Trinitroglycerol, trinitroglycerol] |  |  |  |  | bad tolerance of the preparation by certain categories of patients accompanied by strong headaches |  | incompatibility with some other pharmaceutical preparations |  | 
3 | O=C(CCN1CCN2CCCC2C1)N1c2ccccc2Sc2ccc(Cl)cc21 (centres unmarked) [nonachlazine] | β-adrenostimulating component of the effect on myocardium |  |  |  |  |  |  | cannot be administered in the case of kidney and liver diseases | lasting hypertension of the arterial pressure
